In PubChem BioAssay AID449725 (University of Pittsburgh Molecular Library Screening Center, 2010) one finds IC50 data, which are given here for 41 molecules.

Structures are written as SMILES. Active and inactive are the calls of the source. No rule for the calls is given here.

For the assay, the system named is IMR-90 human lung fibroblast viability counter screen. Put plainly: IMR-90 fibroblast viability reduction, dose response, cytotoxicity control, cell-based, IC50 (AID 449725).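 Also: 48 hour compound exposure before the viability read.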
`COC(=O)c1cc(Cl)ccc1NC(=O)c1ccc(OC)cc1`: the IC50 – broadly, the concentration that inhibits the measured activity by half – is > 25 µM (inactive).
Consider `COc1ccc(C(=O)Nc2cc(-c3ccccc3)ccc2C(=O)O)cc1`, for which the IC50 is > 25 µM (inactive).
For the molecule `Cc1ccc(C(=O)Nc2cc(Cl)ccc2C(=O)O)cc1C`, the IC50 was > 25 µM (inactive).
As to `Cn1sc(=O)c2ccccc21`, the IC50 was 18 µM.
Take `Cc1cccc(C(=O)Nc2cc(Cl)ccc2C(=O)O)c1`: the IC50 was > 25 µM (inactive).
As for `COc1ccc(C(=O)Nc2cc(C(=O)O)ccc2Cl)cc1`, the IC50 is > 25 µM (inactive).
The result for `COc1ccc(C(=O)NCC(=O)O)cc1` reads > 25 µM (inactive); that for `COc1ccc(C(=O)Nc2cc(Cl)ccc2C(=O)O)cn1`, > 25 µM (inactive); that for `COc1ccc(N2C(=O)c3ccc(Cl)cc3C2=O)cc1`, > 25 µM (inactive).
The same measure for `O=C(NCc1ccccc1)n1sc2ccccc2c1=O`: > 25 µM (inactive).
The result for `Cc1ccc(-n2sc3cc(F)ccc3c2=O)c(C)c1` reads 6.4 µM.
For `CN(Cc1ccccc1)C(=O)Cn1sc2ccccc2c1=O`, the IC50 is 15.2 µM.
On to `O=C(Cn1sc2ccccc2c1=O)Nc1cccc(F)c1`, for which the IC50 is > 25 µM (inactive).
The same measure for `CCc1ccc(C(=O)Nc2cc(Cl)ccc2C(=O)OC)cc1`: > 25 µM (inactive).
Take `COc1ccc(C(=O)Nc2cc(F)cc(F)c2O)cc1`: the IC50 is > 25 µM (inactive).
With `O=c1c2ccccc2sn1-c1ccc(Cl)cc1`, the IC50 is > 25 µM (inactive).
The result for `COc1ccc(C(=O)Nc2cc(Cl)ccc2S(N)(=O)=O)cc1` reads > 25 µM (inactive); that for `CN(C)S(=O)(=O)c1cccc(-n2sc3ccccc3c2=O)c1`, 12.8 µM.
The result for `O=C(Cn1sc2ccccc2c1=O)Nc1ccccc1C(F)(F)F` reads > 25 µM (inactive); that for `O=C(Nc1cc(Cl)ccc1C(=O)O)c1ccc(C2CC2)cc1`, > 25 µM (inactive).
The result for `O=c1c2ccc(F)cc2sn1Cc1ccccc1` reads > 25 µM (inactive); that for `N#Cc1ccc2c(=O)n(-c3ccccc3)sc2c1`, > 25 µM (inactive).
Take `O=c1c2ccc([N+](=O)[O-])cc2sn1-c1ccccc1`: the concentration for half-maximal inhibition (IC50) was 20.7 µM.
The same measure for `O=C(Nc1ccccc1)c1cc(F)ccc1S`: > 25 µM (inactive).
The result for `O=c1c2ccccc2sn1-c1ccccc1F` reads 5.4 µM; that for `COc1ccc(C(=O)Nc2ccccc2C(=O)O)cc1Cl`, > 25 µM (inactive).
For the molecule `Cc1ccc(NC(=O)Cn2sc3ccccc3c2=O)cc1`, the IC50 was 11 µM.
On to `O=C(Cn1sc2ccccc2c1=O)Nc1ccc(C(F)(F)F)cc1`, for which the IC50 is 13.9 µM.
`COc1ccc(C(=O)Nc2cc(Br)ccc2C(=O)O)cc1`: the IC50 is > 25 µM (inactive).
The result for `O=C(Cn1sc2ccccc2c1=O)Nc1ccccc1Cl` reads > 25 µM (inactive); that for `O=c1cc(-c2ccccc2)sn1-c1ccccc1`, 13.4 µM; that for `O=C(Cn1sc2ccccc2c1=O)Nc1cccc(I)c1`, > 25 µM (inactive).
Turning to `O=c1c2ccccc2sn1-c1ccccc1Cl`, the IC50 is 4.81 µM.
The same measure for `O=C1c2cc(Br)ccc2S(=O)N1c1ccccc1` (stereo unspecified): > 25 µM (inactive).
The result for `COc1ccc(S(=O)(=O)Nc2cc(Cl)ccc2C(=O)O)cc1` reads > 25 µM (inactive); that for `COc1ccc(C(=O)NC(CC(=O)O)c2cccc(Cl)c2)cc1` (stereo unspecified), > 25 µM (inactive).
Take `O=C(O)c1ccc(Cl)cc1NC(=O)C1CCOCC1`: the IC50 is > 25 µM (inactive).
The result for `O=C(Nc1cc(Cl)ccc1C(=O)O)c1ccc(C2CCCC2)cc1` reads > 25 µM (inactive); that for `COc1ccc(C(=O)Nc2cc(C)ccc2C(=O)O)cc1`, > 25 µM (inactive).
The same measure for `O=C(Nc1cc(Cl)ccc1C(=O)O)c1ccc2c(c1)CCC2`: > 25 µM (inactive).
The result for `O=c1c2ccccc2sn1-c1cccc(Cl)c1` reads > 25 µM (inactive).
